Test system: LG0703-F948-PDC complex spheroid viability
Experiment: Anticancer human tumor LG0703-F948-PDC patient-derived lung adenocarcinoma cell line growth inhibition [RAS]
Details: for IC50: curve of first compound; for viability, T/C: stronger effect = lower value
Method in brief: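 Tumour cells grown as complex spheroids with HUVEC endothelial cells and mesenchymal stem cells, treated with RAS pathway inhibitor combinations. Each agent spans half-log steps from near clinical Cmax, or 10 microM where Cmax is unknown.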

[1] = second compound 0.0316 µM, first compound 0.0316 µM
[2] = second compound 0.0316 µM, first compound 0.1 µM
[3] = second compound 0.0316 µM, first compound 0.316 µM
[4] = second compound 0.0316 µM, first compound 1 µM
[5] = second compound 0.0316 µM, first compound 3.16 µM
[6] = second compound 0.0316 µM, first compound 10 µM
[7] = second compound 0.1 µM, first compound 0.0316 µM
[8] = second compound 0.1 µM, first compound 0.1 µM
[9] = second compound 0.1 µM, first compound 0.316 µM
[10] = second compound 0.1 µM, first compound 1 µM
[11] = second compound 0.1 µM, first compound 3.16 µM
[12] = second compound 0.1 µM, first compound 10 µM
[13] = second compound 0.316 µM, first compound 0.0316 µM
[14] = second compound 0.316 µM, first compound 0.1 µM
[15] = second compound 0.316 µM, first compound 0.316 µM
[16] = second compound 0.316 µM, first compound 1 µM
[17] = second compound 0.316 µM, first compound 3.16 µM
[18] = second compound 0.316 µM, first compound 10 µM
[19] = second compound 1 µM, first compound 0.0316 µM
[20] = second compound 1 µM, first compound 0.1 µM
[21] = second compound 1 µM, first compound 0.316 µM
[22] = second compound 1 µM, first compound 1 µM
[23] = second compound 1 µM, first compound 3.16 µM
[24] = second compound 1 µM, first compound 10 µM
[25] = second compound 3.16 µM, first compound 0.0316 µM
[26] = second compound 3.16 µM, first compound 0.1 µM
[27] = second compound 3.16 µM, first compound 0.316 µM
[28] = second compound 3.16 µM, first compound 1 µM
[29] = second compound 3.16 µM, first compound 3.16 µM
[30] = second compound 3.16 µM, first compound 10 µM
[31] = second compound 10 µM, first compound 0.0316 µM
[32] = second compound 10 µM, first compound 0.1 µM
[33] = second compound 10 µM, first compound 0.316 µM
[34] = second compound 10 µM, first compound 1 µM
[35] = second compound 10 µM, first compound 3.16 µM
[36] = second compound 10 µM, first compound 10 µM
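Also: spheroids exposed to agents for 7 days.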
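For viability, T/C in this document: 100% = DMSO vehicle wells.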

In the case of CC1(C)CCC(Nc2ncc(C(F)(F)F)c(-c3c[nH]c4c(P(C)(C)=O)c(C#N)ccc34)n2)CN1 (stereo unspecified) + CCn1c(-c2cc(N3CCN(C)CC3)cnc2C(C)OC)c2c3cc(ccc31)-c1csc(n1)CC(NC(=O)C1CC1C)C(=O)N1CCCC(N1)C(=O)OCC(C)(C)C2, the IC50 (second compound 0.000949 µM) is reported as greater than 300 nM, the IC50 (second compound 0.003 µM) is reported as less than 0.949 nM and the IC50 (second compound 0.00949 µM) is reported as less than 0.949 nM. For the same molecule, the IC50 (second compound 0.03 µM) was less than 0.949 nM, the IC50 (second compound 0.0949 µM) was less than 0.949 nM and the IC50 (second compound 0.3 µM) was less than 0.949 nM. It also gave a viability, T/C (second compound 0.000949 µM, first compound 0.000949 µM) of 70.9%, a viability, T/C (second compound 0.000949 µM, first compound 0.003 µM) of 58.2% and a viability, T/C (second compound 0.000949 µM, first compound 0.00949 µM) of 54.9%. For the same molecule, the viability, T/C (second compound 0.000949 µM, first compound 0.03 µM) was 64.2%, the viability, T/C (second compound 0.000949 µM, first compound 0.0949 µM) was 69.8% and the viability, T/C (second compound 0.000949 µM, first compound 0.3 µM) was 66%. It also gave a viability, T/C (second compound 0.003 µM, first compound 0.000949 µM) of 50.5%, a viability, T/C (second compound 0.003 µM, first compound 0.003 µM) of 38.7% and a viability, T/C (second compound 0.003 µM, first compound 0.00949 µM) of 43.2%. The viability, T/C (second compound 0.003 µM, first compound 0.03 µM) was 39%, the viability, T/C (second compound 0.003 µM, first compound 0.0949 µM) was 40.1% and the viability, T/C (second compound 0.003 µM, first compound 0.3 µM) was 44.5%. The viability, T/C (second compound 0.00949 µM, first compound 0.000949 µM) was 27.3%, the viability, T/C (second compound 0.00949 µM, first compound 0.003 µM) was 26.4% and the viability, T/C (second compound 0.00949 µM, first compound 0.00949 µM) was 25.1%. For the same molecule, the viability, T/C (second compound 0.00949 µM, first compound 0.03 µM) was 31.8%, the viability, T/C (second compound 0.00949 µM, first compound 0.0949 µM) was 26.6% and the viability, T/C (second compound 0.00949 µM, first compound 0.3 µM) was 33.8%. The viability, T/C (second compound 0.03 µM, first compound 0.000949 µM) was 15.2%, the viability, T/C (second compound 0.03 µM, first compound 0.003 µM) was 14.4% and the viability, T/C (second compound 0.03 µM, first compound 0.00949 µM) was 17.2%. It also gave a viability, T/C (second compound 0.03 µM, first compound 0.03 µM) of 19.4%, a viability, T/C (second compound 0.03 µM, first compound 0.0949 µM) of 18.3% and a viability, T/C (second compound 0.03 µM, first compound 0.3 µM) of 20.3%. For the same molecule, the viability, T/C (second compound 0.0949 µM, first compound 0.000949 µM) was 12.3%, the viability, T/C (second compound 0.0949 µM, first compound 0.003 µM) was 11.9% and the viability, T/C (second compound 0.0949 µM, first compound 0.00949 µM) was 12.3%. It also gave a viability, T/C (second compound 0.0949 µM, first compound 0.03 µM) of 12.9%, a viability, T/C (second compound 0.0949 µM, first compound 0.0949 µM) of 14.1% and a viability, T/C (second compound 0.0949 µM, first compound 0.3 µM) of 9.28%. It also gave a viability, T/C (second compound 0.3 µM, first compound 0.000949 µM) of 9.53%, a viability, T/C (second compound 0.3 µM, first compound 0.003 µM) of 9.6% and a viability, T/C (second compound 0.3 µM, first compound 0.00949 µM) of 8.69%. The viability, T/C (second compound 0.3 µM, first compound 0.03 µM) was 12.3%, the viability, T/C (second compound 0.3 µM, first compound 0.0949 µM) was 12.7% and the viability, T/C (second compound 0.3 µM, first compound 0.3 µM) was 10.1%.
With CC1(O)CCCC1n1c(=O)c(C(F)F)cc2cnc(NC3CCN(S(C)(=O)=O)CC3)nc21 (stereo unspecified) + C#Cc1c(F)ccc2cc(O)cc(-c3ncc4c(N5CC6CCC(C5)N6)nc(OCC56CCCN5CC(F)C6)nc4c3F)c12 the IC50 (second compound 0.0316 µM) was 6150 nM, the IC50 (second compound 0.1 µM) was 7250 nM and the IC50 (second compound 0.316 µM) was 5040 nM. It also gave an IC50 (second compound 1 µM) of 5730 nM, an IC50 (second compound 3.16 µM) of 4260 nM and an IC50 (second compound 10 µM) of 3940 nM. The viability, T/C [1] was 109%, the viability, T/C [2] was 92.2% and the viability, T/C [3] was 97.8%. The viability, T/C [4] was 87%, the viability, T/C [5] was 77.1% and the viability, T/C [6] was 31.6%. It also gave a viability, T/C [7] of 131%, a viability, T/C [8] of 109% and a viability, T/C [9] of 82.4%. It also gave a viability, T/C [10] of 76.3%, a viability, T/C [11] of 87.7% and a viability, T/C [12] of 29.5%. The viability, T/C [13] was 83.9%, the viability, T/C [14] was 72.4% and the viability, T/C [15] was 74.5%. It also gave a viability, T/C [16] of 65.9%, a viability, T/C [17] of 69.4% and a viability, T/C [18] of 23.9%. It also gave a viability, T/C [19] of 78.3%, a viability, T/C [20] of 82.7% and a viability, T/C [21] of 88.3%. The viability, T/C [22] was 67.1%, the viability, T/C [23] was 86.7% and the viability, T/C [24] was 21.3%. It also gave a viability, T/C [25] of 71.5%, a viability, T/C [26] of 62% and a viability, T/C [27] of 69.1%. For the same molecule, the viability, T/C [28] was 61.6%, the viability, T/C [29] was 63% and the viability, T/C [30] was 13.6%. It also gave a viability, T/C [31] of 50%, a viability, T/C [32] of 71.3% and a viability, T/C [33] of 55.2%. The viability, T/C [34] was 62.9%, the viability, T/C [35] was 65.1% and the viability, T/C [36] was 4.24%.
With Cc1nc(N2CCC3(CC2)COC(C)C3N)c(CO)nc1Sc1ccnc(N)c1Cl (stereo unspecified) + C#Cc1c(F)ccc2cc(O)cc(-c3ncc4c(N5CC6CCC(C5)N6)nc(OCC56CCCN5CC(F)C6)nc4c3F)c12 the IC50 (second compound 0.0316 µM) was 370 nM, the IC50 (second compound 0.1 µM) was 287 nM and the IC50 (second compound 0.316 µM) was 181 nM. For the same molecule, the IC50 (second compound 1 µM) was 85.8 nM, the IC50 (second compound 3.16 µM) was 32.7 nM and the IC50 (second compound 10 µM) was less than 31.6 nM. It also gave a viability, T/C [1] of 76.2%, a viability, T/C [2] of 73.7% and a viability, T/C [3] of 47.9%. It also gave a viability, T/C [4] of 35.5%, a viability, T/C [5] of 20.1% and a viability, T/C [6] of 10.7%. The viability, T/C [7] was 83.4%, the viability, T/C [8] was 63% and the viability, T/C [9] was 47.4%. For the same molecule, the viability, T/C [10] was 35.9%, the viability, T/C [11] was 17.6% and the viability, T/C [12] was 4.95%. The viability, T/C [13] was 68.1%, the viability, T/C [14] was 60.1% and the viability, T/C [15] was 40.3%. For the same molecule, the viability, T/C [16] was 26.4%, the viability, T/C [17] was 14.4% and the viability, T/C [18] was 6.94%. It also gave a viability, T/C [19] of 52.4%, a viability, T/C [20] of 51.7% and a viability, T/C [21] of 35.8%. For the same molecule, the viability, T/C [22] was 19.9%, the viability, T/C [23] was 15.5% and the viability, T/C [24] was 7.42%. The viability, T/C [25] was 50.3%, the viability, T/C [26] was 41.5% and the viability, T/C [27] was 28.5%. It also gave a viability, T/C [28] of 15%, a viability, T/C [29] of 9.6% and a viability, T/C [30] of 5.81%. For the same molecule, the viability, T/C [31] was 28.7%, the viability, T/C [32] was 29.3% and the viability, T/C [33] was 20.1%. For the same molecule, the viability, T/C [34] was 10.6%, the viability, T/C [35] was 6.12% and the viability, T/C [36] was 2.83%.
